Converted amounts (≈) assume the structure as drawn. “And” between values parts separate entries of the source, which are not always exact repeats. Equal values may be shown once. Read-outs that look alike come from different tables or passages of the source.
Columns and labels:
Format in all cases: cell-based
[1] = tested on: Acinetobacter baumannii 03.021.1 (GN_039), Colistin resistant; assay: MIC micro-broth dilution assay (Example 1 method); settings: replicates
Procedure: (§1) Analysis was performed using Microsoft Excel.

[2] = tested on: Enterobacter cloacae CI Patercon BoxNo: 79 (GN_016), MDR; assay: MIC micro-broth dilution assay (Example 1 method); settings: replicates
Procedure: as §1

[3] = tested on: Pseudomonas aeruginosa FADDI-PA067 (GN_177), Polymyxin resistant; assay: MIC micro-broth dilution assay (Example 1 method); settings: Pseudomonas aeruginosa, read-out: Minimum Inhibitory Concentration (MIC)
Procedure: as §1

[4] = tested on: Pseudomonas aeruginosa ATCC 27853; assay: Synergy assay CBD with PMBN (Example 10); settings: for FICI: Table 40
Procedure: (§2) The inoculum was then diluted in CaMHB to give a mid-log phase cultures and 40 μL was added to each well from column 1 to column 18, and column 23. 45 μL of the inoculum was added to each well from column 19 to column 22 to give the final cell density of 5×10^5 CFU/mL. The plates were incubated at 37° C. for 18-20h.
(§3) Optical density was read at 600 nm (OD600) using Gen5 Spectrophotometer. […] Analysis was performed using Microsoft Excel.
(§4) CBD was tested in combination with PMBN in a 14×9 matrix for each. CBD and PMBN were also included on the plate individually (from column 20 and 2) as positive controls and to collect the MIC values.
(§5) CBD was two-fold serial diluted across the wells of a 384-wells plate from row B to O (FIG. 1), while PMBN was two-fold serial diluted across the wells of a 384-wells plate from column 2 to 10 (FIG. 2). The inhibitor controls of each antibiotic/compound were 1:2 serial diluted down the plate at column 19, 20, 21 (respectively A, B and C antibiotic).
(§6) 5 μL of the CBD mother plate were plated vertically intro tested 384-well PS plate (for column 2-10). 5 μL were stamped out horizontally from the PMBN mother plate. Resulting in a final volume of 10 μL in the test plates. 5 μL antibiotic were added to the control column (column 20, 21). Column 23 was the growth control and column 24 was media control.

[5] = tested on: Acinetobacter baumannii ATCC 19606; assay: Synergy assay CBD with PMBN (Example 10); settings: for FICI: Table 40
Procedure: as §2, §3, §4, §5, §6

[6] = tested on: Klebsiella pneumoniae ATCC 700603; assay: Synergy assay CBD with PMBN (Example 10)
Procedure: as §2, §3, §4, §5, §6

[7] = tested on: Escherichia coli ATCC 25922; assay: Synergy assay CBD with PMBN (Example 10); settings: for FICI: Table 40
Procedure: as §2, §3, §4, §5, §6

[8] = tested on: Acinetobacter baumannii ATCC 19606 (GN_034); assay: MIC micro-broth dilution assay (Example 1 method); settings: for MIC: ATCC19606
[9] = Example 8 Table 31, compound alone
[10] = Example 9 Table 35, compound alone
[11] = Example 10, CBD + PMBN, listed as CBD
[12] = Example 10, panel of wild type Gram-negative bacteria
[13] = CBD + PMBN at 1 (μg/mL per Table 39)
[14] = CBD + PMBN at 16, listed as CBD

In the case of `C=C(C)C1CCC(C)=CC1c1c(O)cc(CCCCC)cc1O` (stereo not shown) [Cannabidiol, 2-[3-methyl-6-(1-methylethenyl)-2-cyclohexen-1-yl]-5-pentyl-1,3-benzenediol], the MIC ([1]; Acinetobacter baumannii, Example 8 Table 31, compound alone, read-out: Minimum Inhibitory Concentration (MIC)) is reported as over 256 µg/mL, the “Minimum Inhibitory Concentration (MIC)” value [1, 9] is reported as over 256 µg/mL and the “Minimum Inhibitory Concentration (MIC)” value [1, 10] is reported as over 256 µg/mL. The MIC ([2]; Enterobacter cloacae, Example 8 Table 31, compound alone, read-out: Minimum Inhibitory Concentration (MIC)) was over 256 µg/mL, the “Minimum Inhibitory Concentration (MIC)” value [2, 9] was over 256 µg/mL and the “Minimum Inhibitory Concentration (MIC)” value [2, 10] was over 256 µg/mL. The MIC [3] was over 256 µg/mL, the “CBD MIC with PMBN (MCC_9298) at concn 1 μg/mL” value (shortened to “CBD MIC … at concn 1 μg/mL”) ([4]; Example 10) was 64 µg/mL and the “CBD MIC with PMBN (MCC_9298) at concn 2 μg/mL” value (from here on “CBD MIC … at concn 2 μg/mL”) ([4]; Example 10) was 64 µg/mL. The “CBD MIC with PMBN (MCC_9298) at concn 32 μg/mL” value (“CBD MIC … at concn 32 μg/mL” for short) ([4]; Example 10) was 32 µg/mL, the FICI range [4, 11] was 0.28-1.13 and 0.25-1.13 and the “CBD MIC with PMBN (MCC_9298) at concn 4 μg/mL” value ([4]; Example 10, listed as CBD) was 64 µg/mL and 32 µg/mL. The “CBD MIC with PMBN (MCC_9298) at concn 8 μg/mL” value ([4]; Example 10, listed as CBD) was 64 µg/mL and 32 µg/mL, the “CBD MIC with PMBN (MCC_9298) at concn 16 μg/mL” value ([4]; Example 10, listed as CBD) was 64 µg/mL and 32 µg/mL and the “CBD in combination with PMBN: synergy” value [4, 12] was “synergistic activity”. For the same compound, the FICI [4, 13] was 0.2812, the FICI ([4]; CBD + PMBN at 2) was 0.3125 and the FICI ([4]; CBD + PMBN at 4, listed as CBD) was 0.375 and 0.25. The FICI ([4]; CBD + PMBN at 8, listed as CBD) was 0.5 and 0.375, the FICI [4, 14] was 0.75 and 0.625 and the FICI ([4]; CBD + PMBN at 32) was 1.125. For the same compound, the “CBD MIC … at concn 1 μg/mL” value ([5]; Example 10) was 32 µg/mL, the “CBD MIC … at concn 2 μg/mL” value ([5]; Example 10) was 32 µg/mL and the “CBD MIC with PMBN (MCC_9298) at concn 4 μg/mL” value ([5]; Example 10) was 32 µg/mL. For the same compound, the “CBD MIC with PMBN (MCC_9298) at concn 8 μg/mL” value ([5]; Example 10) was 32 µg/mL, the “CBD MIC with PMBN (MCC_9298) at concn 16 μg/mL” value ([5]; Example 10) was 32 µg/mL and the “CBD MIC … at concn 32 μg/mL” value ([5]; Example 10) was 32 µg/mL. The FICI range ([5]; Example 10, CBD + PMBN) was 0.16-1.13, the “CBD in combination with PMBN: synergy” value [5, 12] was “synergistic activity” and the FICI [5, 13] was 0.1562. The FICI ([5]; CBD + PMBN at 2) was 0.1875, the FICI ([5]; CBD + PMBN at 4) was 0.25 and the FICI ([5]; CBD + PMBN at 8) was 0.375. The FICI ([5]; CBD + PMBN at 16) was 0.625, the FICI ([5]; CBD + PMBN at 32) was 1.125 and the “CBD MIC … at concn 1 μg/mL” value ([6]; Example 10) was over 256 µg/mL. For the same compound, the “CBD MIC … at concn 2 μg/mL” value ([6]; Example 10) was over 256 µg/mL, the “CBD MIC … at concn 32 μg/mL” value ([6]; Example 10, listed as CBD) was 64 µg/mL and 32 µg/mL and the “CBD in combination with PMBN: synergy” value [6, 12] was “synergistic activity”. The FICI ([6]; Table 40, CBD + PMBN at 2) was 1.0625, the “CBD MIC … at concn 1 μg/mL” value ([7]; Example 10) was 64 µg/mL and the “CBD MIC … at concn 2 μg/mL” value ([7]; Example 10) was 64 µg/mL. The “CBD MIC … at concn 32 μg/mL” value ([7]; Example 10) was 64 µg/mL, the FICI range [7, 11] was 0.28-1.25 and 0.28-1.5 and the “CBD in combination with PMBN: synergy” value [7, 12] was “synergistic activity”. For the same compound, the FICI [7, 13] was 0.2812, the FICI ([7]; CBD + PMBN at 2) was 0.3125 and the FICI [7, 14] was 0.75 and 1.5. For the same compound, the FICI ([7]; CBD + PMBN at 32) was 1.25, the MIC ([8]; CBD alone, Acinetobacter baumannii ATCC 19606, read-out: CBD MIC) was 256 µg/mL (≈ 814 µM) and the “CBD MIC” value ([8]; Acinetobacter baumannii ATCC 19606, CBD alone) was 256 µg/mL. For the same compound, the MIC ([8]; Acinetobacter baumannii, Example 1 Table 3, GN_034, compound alone, replicates, read-out: Minimal Inhibitory Concentration (MIC)) was over 256 µg/mL, the MIC ([8]; Acinetobacter baumannii, Example 4 Table 15, GN_034, compound alone, replicates, read-out: Minimum Inhibitory Concentration (MIC)) was over 256 µg/mL and the “CBD MIC” value ([8]; CBD alone) was 256 µg/mL. The “Minimal Inhibitory Concentration (MIC)” value ([8]; Example 1 Table 3, GN_034, compound alone, replicates) was over 256 µg/mL, the “Minimum Inhibitory Concentration (MIC)” value ([8]; Example 2 Table 7, GN_034, compound alone, replicates) was over 256 µg/mL and the “Minimum Inhibitory Concentration (MIC)” value ([8]; Example 3 Table 11, GN_034, compound alone, replicates) was over 256 µg/mL. The “Minimum Inhibitory Concentration (MIC)” value ([8]; Example 4 Table 15, GN_034, compound alone, replicates) was over 256 µg/mL, the “Minimum Inhibitory Concentration (MIC)” value ([8]; Example 5 Table 19, GN_034, compound alone, replicates) was over 256 µg/mL and the “Minimum Inhibitory Concentration (MIC)” value ([8]; Example 6 Table 23, GN_034, compound alone, replicates) was over 256 µg/mL. For the same compound, the “Minimal Inhibitory Concentration (MIC)” value ([8]; Example 7 Table 27, GN_034, compound alone, replicates) was over 256 µg/mL.

Reference: patent US20230013669A1, “Antibacterial Treatment Using a Cannabinoid and an Active Agent” (priority 2019, published 2023)
